We go through 32 compounds from patent US20100009970A1, “COMPOSITIONS AND METHODS FOR TREATMENT OF VIRAL DISEASES” (Combinatorx (Singapore) Pte. Ltd., priority 2008, published 2010).

A short description of one data set: in vitro. Particulars: human, CC50 (uM) [SG].
Data set [1] relates to Huh7 cells expressing a subgenomic RNA replicon of Con1 (genotype 1b) sequence origin. The experiment in a line: microbe, parasite or virus in culture. The conditions noted are these: Hepatitis C virus; for IC50: Huh-7, read-out: IC50 (uM) [SG]; for IC90: Huh-7.

With `CN(C)Cc1ccccc1Oc1ccc(Br)cc1` [Compound 55, (2-(4-bromophenoxy)phenyl)-N,N-dimethylmethanamine], in the data set “in vitro”, the CC50 was > 50 µM. Moreover, the 50% inhibitory concentration (IC50) (commonly the concentration at which inhibition is half-maximal) in data set [1] is 29.9 µM. In addition, in data set [1] (Huh-7, read-out: Max Effect@CC30 (inhibition)), the Emax turned out to be 77.2%.

As to `CSc1ccc(Oc2ccc(S(=O)(=O)Nc3ccc(Br)cc3)cc2CN(C)C)cc1C` [Compound 57, N-(4-bromophenyl)-3-((dimethylamino)methyl)-4-(3-methyl-4-(methylthio)phenoxy)benzenesulfonamide], the CC50 in the data set “in vitro” is 8.17 µM. In addition, the concentration for half-maximal inhibition (IC50) in data set [1] came to 11 µM.

In the case of `CSc1ccc(Oc2ccc(S(N)(=O)=O)cc2N)cc1C` [Compound 58, 3-amino-4-(3-methyl-4-(methylthio)phenoxy)benzenesulfonamide], the CC50 in “in vitro” was > 50 µM. The IC50 in data set [1] is 15.3 µM.

The compound `COc1ccc(NS(=O)(=O)c2ccc(Oc3ccc(SC)c(C)c3)c(CN(C)C)c2)cc1` [Compound 59, 3-((dimethylamino)methyl)-N-(4-methoxyphenyl)-4-(3-methyl-4-(methylthio)phenoxy)benzenesulfonamide] showed a CC50 in the data set “in vitro” of 8.32 µM. Besides, the half-inhibitory concentration (IC50) in data set [1] is 6.39 µM.

On to `CSc1ccc(Oc2cc(Br)ccc2CN(C)C)cc1C` [Compound 60, 1-(4-bromo-2-(3-methyl-4-(methylthio)phenoxy)phenyl)-N,N-dimethylmethanamine], for which, in “in vitro”, the CC50 came out at 28.7 µM. The IC50 in data set [1] worked out at 12.6 µM.

Turning to `Cc1cc(Oc2ccc(S(N)(=O)=O)cc2CN(C)C)ccc1Br` [Compound 61, 4-(4-bromo-3-methylphenoxy)-3-((dimethylamino)methyl)benzenesulfonamide], the CC50 in “in vitro” was > 50 µM. Further, the IC50 in data set [1] is 12.1 µM.

Regarding `CSc1ccc(Oc2ccc(S(N)(=O)=O)cc2CN2CCN(C)CC2)cc1C` [Compound 63, 4-(3-methyl-4-(methylthio)phenoxy)-3-((4-methylpiperazine-1-yl)methyl)benzenesulfonamide], in the data set “in vitro”, the CC50 was > 50 µM. Besides, in data set [1], it took 10.5 µM to reach the 90% level (IC90) and the half-inhibitory concentration (IC50) was determined as 4.82 µM.

As to `CSc1ccc(Oc2cc(C#N)ccc2CN(C)C)cc1C` [Compound 64, 4-((dimethylamino)methyl)-3-(3-methyl-4-(methylthio)phenoxy)benzonitrile], the CC50 in the data set “in vitro” is > 50 µM. Moreover, the concentration for half-maximal inhibition (IC50) in data set [1] was found to be 22.5 µM.

Regarding `Cc1cccc(Oc2ccc(S(N)(=O)=O)cc2CC(C)C)c1` [Compound 65, 3-isobutyl-4-(m-tolyloxy)benzenesulfonamide], the CC50 in the data set “in vitro” was > 50 µM. In data set [1], the concentration for an effect of 90% (IC90) (commonly the concentration at which the effect reaches the 90% level) stood at 50 µM and the IC50 is 30.7 µM.

Consider `CSc1ccc(Oc2ccc(S(N)(=O)=O)cc2CN2CC[C@H](O)C2)cc1C` [Compound 66, (S)-3-((3-hydroxypyrrolidin-1-yl)methyl)-4-(3-methyl-4-(methylthio)phenoxy)benzenesulfonamide], for which, in “in vitro”, the CC50 was > 50 µM. In addition, in data set [1], the 90% effect level (IC90) was put at 6.78 µM and the IC50 came out at 2.43 µM.

As to `CSc1ccc(Oc2ccc(S(N)(=O)=O)cc2CN2CC[C@@H](O)C2)cc1C` [Compound 67, (R)-3-((3-hydroxypyrrolidin-1-yl)methyl)-4-(3-methyl-4-(methylthio)phenoxy)benzenesulfonamide], the CC50 in the data set “in vitro” is > 50 µM. Further, in data set [1], the 90% effect level (IC90) was put at 7.4 µM and the IC50 stood at 2.26 µM.

For `CSc1ccc(Oc2ccc(S(N)(=O)=O)cc2CNC[C@@H](C)O)cc1C` [Compound 68, (R)-3-((2-hydroxypropylamino)methyl)-4-(3-methyl-4-(methylthio)phenoxy)benzenesulfonamide], in the data set “in vitro”, the CC50 was > 50 µM. Moreover, in data set [1], it took 15.3 µM to reach the 90% level (IC90) and the IC50 stood at 4.34 µM.

Consider `CSc1ccc(Oc2ccc(S(N)(=O)=O)cc2CNC[C@H](C)O)cc1C` [Compound 69, (S)-3-((2-hydroxypropylamino)methyl)-4-(3-methyl-4-(methylthio)phenoxy)benzenesulfonamide], for which, in “in vitro”, the CC50 was > 50 µM. Moreover, in data set [1], it took 10.4 µM to reach the 90% level (IC90) and the IC50 was determined as 3.54 µM.

With `CSc1ccc(Oc2ccc(S(N)(=O)=O)cc2CN(C)C[C@@H](C)O)cc1C` [Compound 70, (R)-3-(((2-hydroxypropyl)(methyl)amino)methyl)-4-(3-methyl-4-(methylthio)phenoxy)benzenesulfonamide], the CC50 in “in vitro” was > 50 µM. In data set [1], the IC90 was found to be 23.9 µM and the IC50 came out at 7.01 µM.

As to `CSc1ccc(Oc2ccc(S(N)(=O)=O)cc2CN(C)C[C@H](C)O)cc1C` [Compound 71, (S)-3-(((2-hydroxypropyl)(methyl)amino)methyl)-4-(3-methyl-4-(methylthio)phenoxy)benzenesulfonamide], the CC50 in “in vitro” is > 50 µM. Further, in data set [1], the 90% effect level (IC90) was put at 13.4 µM and the IC50 was determined as 4.96 µM.

In “in vitro”, `CSc1cc(S(N)(=O)=O)c(Oc2cc(Br)ccc2CN(C)C)cc1C` [Compound 72, 2-(5-bromo-2-((dimethylamino)methyl)phenoxy)-4-methyl-5-(methylthio)benzenesulfonamide] returned a CC50 of 45 µM. The IC50 in data set [1] came out at 16.3 µM.

In the data set “in vitro”, `CSc1ccc(Oc2ccc(S(N)(=O)=O)cc2CN2CCCCC2)cc1C` [Compound 73, 4-(3-methyl-4-(methylthio)phenoxy)-3-(piperidin-1-ylmethyl)benzenesulfonamide] returned a CC50 of 37.9 µM. Moreover, in data set [1], it took 13.6 µM to reach the 90% level (IC90) and the IC50 is 4.7 µM.

In the case of `CSc1ccc(Oc2ccc(S(N)(=O)=O)cc2CN2CCCN(C)CC2)cc1C` [Compound 74, 3-((4-methyl-1,4-diazepan-1-yl)methyl)-4-(3-methyl-4-(methylthio)phenoxy)benzenesulfonamide], in “in vitro”, the CC50 was 35.9 µM. For the same compound, in data set [1], the IC90 was found to be 16.1 µM and the IC50 stood at 7.31 µM.

Regarding `CNCc1cc(S(N)(=O)=O)ccc1Oc1ccc(SC)c(OC)c1` [Compound 75, 4-(3-methoxy-4-(methylthio)phenoxy)-3-((methylamino)methyl)benzenesulfonamide], the CC50 in the data set “in vitro” was > 50 µM. For the same compound, in data set [1], the half-maximal inhibitory concentration (IC50) worked out at 11.9 µM.

`CNCc1cc(S(N)(=O)=O)ccc1Oc1ccc([N+](=O)[O-])c(C)c1` [Compound 76, 4-(3-methyl-4-nitrophenoxy)-3-((methylamino)methyl)benzenesulfonamide]: the CC50 in the data set “in vitro” is > 50 µM. Besides, the IC50 in data set [1] amounted to 31 µM.

As for `CSc1ccc(N2CN(C)Cc3cc(Br)ccc32)cc1C` [Compound 78, 6-bromo-3-methyl-1-(3-methyl-4-(methylthio)phenyl)-1,2,3,4-tetrahydroquinazoline], the CC50 in the data set “in vitro” is 24.9 µM. Besides, in data set [1], the IC90 came out at 15.5 µM and the concentration for half-maximal inhibition (IC50) was determined as 13.7 µM.

`CSc1ccc(Oc2ccc(S(N)(=O)=O)cc2CNCCCN(C)C)cc1C` [Compound 79, 3-((3-(dimethylamino)propylamino)methyl)-4-(3-methyl-4-(methylthio)phenoxy)benzenesulfonamide]: the CC50 in the data set “in vitro” worked out at 17.8 µM. In data set [1], the 90% effect level (IC90) was put at 9.66 µM and the half-maximal inhibitory concentration (IC50) turned out to be 3.44 µM.

Turning to `CSc1ccc(Oc2ccc(S(N)(=O)=O)cc2CN2CCOCC2)cc1C` [Compound 82, 4-(3-methyl-4-(methylthio)phenoxy)-3-(morpholinomethyl)benzenesulfonamide], the CC50 in the data set “in vitro” was > 50 µM. The half-inhibitory concentration (IC50) in data set [1] came out at 20.8 µM.

For the compound `CNCc1cc(S(N)(=O)=O)ccc1Oc1ccc(C)c(C)c1` [Compound 84, 4-(3,4-dimethylphenoxy)-3-((methylamino)methyl)benzenesulfonamide], in the data set “in vitro”, the CC50 was found to be 46.7 µM. In data set [1], it took 39.6 µM to reach the 90% level (IC90) and the concentration for half-maximal inhibition (IC50) is 28.1 µM.

Consider `CSc1ccc(Oc2ccc(S(N)(=O)=O)cc2CN2CC[C@H](F)C2)cc1C` [Compound 85, (S)-3-((3-fluoropyrrolidin-1-yl)methyl)-4-(3-methyl-4-(methylthio)phenoxy)benzenesulfonamide], for which the CC50 in “in vitro” was > 50 µM. Moreover, the IC50 in data set [1] was found to be 7.22 µM.

As for `CSc1ccc(Oc2ccc(S(N)(=O)=O)cc2C=C(C)C)cc1C` [Compound 86, 4-(3-methyl-4-(methylthio)phenoxy)-3-(2-methylprop-1-enyl)benzenesulfonamide], the CC50 in “in vitro” is > 50 µM. For the same compound, the IC50 in data set [1] was determined as 34.8 µM.

The compound `CSc1ccc(Oc2ccc(S(N)(=O)=O)cc2CN2CCN(c3ccccc3F)CC2)cc1C` [Compound 87, 3-((4-(2-fluorophenyl)piperazin-1-yl)methyl)-4-(3-methyl-4-(methylthio)phenoxy)benzenesulfonamide] returned a CC50 in the data set “in vitro” of 30.2 µM. In data set [1], the IC50 turned out to be 23.5 µM.

In turn, `CSc1ccc(Oc2ccc(S(N)(=O)=O)cc2CN2CC[C@H](N(C)C)C2)cc1C` [Compound 88, (S)-3-((3-(dimethylamino)pyrrolidin-1-yl)methyl)-4-(3-methyl-4-(methylthio)phenoxy)benzenesulfonamide] yielded a CC50 in “in vitro” of 39.4 µM. In data set [1], the IC90 came out at 13.2 µM and the half-maximal inhibitory concentration (IC50) turned out to be 4.15 µM.

In the case of `CSc1ccc(Oc2ccc(S(N)(=O)=O)cc2CN2CCC(N3CCOCC3)CC2)cc1C` [Compound 89, 4-(3-methyl-4-(methylthio)phenoxy)-3-((4-morpholinopiperidin-1-yl)methyl)benzenesulfonamide], in the data set “in vitro”, the CC50 is > 50 µM. For the same compound, in data set [1], the 90% effect level (IC90) was put at 21.3 µM and the concentration for half-maximal inhibition (IC50) amounted to 6.62 µM.

Compound `CSc1ccc(Oc2ccc(S(N)(=O)=O)cc2CN2CCN(C3CCN(C)CC3)CC2)cc1C` [Compound 90, 4-(3-methyl-4-(methylthio)phenoxy)-3-((4-(1-methylpiperidin-4-yl)piperazin-1-yl)methyl)benzenesulfonamide] returned a CC50 in “in vitro” of 9.1 µM. Besides, in data set [1], the 90% effect level (IC90) was put at 7.48 µM and the concentration for half-maximal inhibition (IC50) was 2.03 µM.

In “in vitro”, `CSc1ccc(Oc2ccc(S(N)(=O)=O)cc2CN2CCN(c3ccncc3)CC2)cc1C` [Compound 91, 4-(3-methyl-4-(methylthio)phenoxy)-3-((4-(pyridin-4-yl)piperazin-1-yl)methyl)benzenesulfonamide] showed a CC50 of 9.86 µM. In data set [1], the IC50 was determined as 4.91 µM.

Compound `CSc1ccc(Oc2ccc(S(N)(=O)=O)cc2CN2CCN(c3ccc(Cl)cc3)CC2)cc1C` [Compound 92, 3-((4-(4-chlorophenyl)piperazin-1-yl)methyl)-4-(3-methyl-4-(methylthio)phenoxy)benzenesulfonamide] registered a CC50 in “in vitro” of 44.4 µM. Further, the IC50 in data set [1] is 30 µM.
